US9957271B2, “Substituted bicyclic aza-heterocycles and analogues as sirtuin modulators” (GlaxoSmithKline, LLC, priority 2012, dated 2018)

Experiments:
[1] = target: T1, SIRT1 (Homo sapiens, UniProt Q96EB6); experiment: Trp mass spectrometry assay of SIRT1 activity; format: biochemical; conditions: for Emax: read-out: Trp % Fold Act
T1 sequence (Q96EB6 1-747): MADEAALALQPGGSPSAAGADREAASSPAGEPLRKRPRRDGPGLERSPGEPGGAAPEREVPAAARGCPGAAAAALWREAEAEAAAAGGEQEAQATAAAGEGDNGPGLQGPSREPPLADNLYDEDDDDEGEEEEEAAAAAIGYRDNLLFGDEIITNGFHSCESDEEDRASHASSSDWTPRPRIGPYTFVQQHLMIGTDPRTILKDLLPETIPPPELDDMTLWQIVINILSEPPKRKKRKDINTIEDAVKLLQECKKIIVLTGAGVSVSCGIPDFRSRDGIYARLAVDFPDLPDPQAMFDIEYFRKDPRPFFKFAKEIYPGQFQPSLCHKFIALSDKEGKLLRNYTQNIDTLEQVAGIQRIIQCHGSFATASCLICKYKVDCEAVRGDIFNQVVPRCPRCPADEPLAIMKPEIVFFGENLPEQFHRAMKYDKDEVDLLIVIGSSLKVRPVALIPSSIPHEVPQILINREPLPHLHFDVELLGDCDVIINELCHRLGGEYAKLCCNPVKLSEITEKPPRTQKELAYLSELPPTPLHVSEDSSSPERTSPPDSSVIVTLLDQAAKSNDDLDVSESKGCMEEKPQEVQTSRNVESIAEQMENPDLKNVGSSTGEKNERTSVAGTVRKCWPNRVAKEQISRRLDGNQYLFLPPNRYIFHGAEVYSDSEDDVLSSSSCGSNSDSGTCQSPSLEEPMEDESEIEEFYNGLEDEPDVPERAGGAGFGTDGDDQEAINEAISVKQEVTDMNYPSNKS
In short: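 His-tagged SIRT1 expressed in E. coli BL21(DE3), 10 nM, incubated 25 min at 25° C. with 0.5 μM Ac-RHKK(Ac)W-NH2 peptide and 120 μM βNAD+ in 50 mM HEPES pH 7.5, […], 1 mM DTT, 0.05% BSA; formic acid stop. OAADPR or deacetylated peptide measured by mass spectrometry; EC1.5 and percent maximum activation versus DMSO control.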

[2] = target: T1, SIRT1; experiment: TAMRA based mass spectrometry assay of SIRT1 activity; format: biochemical; conditions: for Emax: read-out: TAMRA % Fold Act
In short: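 Recombinant N-terminal His-tagged human SIRT1 (10 nM, E. coli) incubated 25 min at 25 °C with 0.5 μM 5TMR-labelled p53-derived acetyl-peptide and 120 μM βNAD+ in Tris-acetate pH 8 buffer with DTT and 0.05% BSA, compound at varying concentrations. Stopped with formic acid; deacetylated peptide or OAADPR measured by mass spectrometry relative to DMSO controls.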

[3] = concentration of test compound giving 150% activation of SIRT1, Trp peptide substrate
[4] = percent maximum fold activation of SIRT1, Trp peptide substrate
[5] = concentration of test compound giving 150% activation of SIRT1, TAMRA peptide substrate
[6] = percent maximum fold activation of SIRT1, TAMRA peptide substrate
[7] = Trp assay, concentration giving 150% activation of SIRT1
[8] = Trp assay, percent maximum fold activation
[9] = TAMRA assay, concentration giving 150% activation of SIRT1
[10] = TAMRA assay, percent maximum fold activation
[11] = Trp peptide substrate, concentration giving 150% activation of SIRT1
[12] = Trp peptide substrate, percent maximum fold activation
[13] = TAMRA peptide substrate, concentration giving 150% activation of SIRT1
[14] = TAMRA peptide substrate, percent maximum fold activation

Trp EC1.5 (μM) [1, 3]	Emax [1, 4] [%]	TAMRA EC1.5 (μM) [2, 5]	Emax [2, 6] [%]	Trp EC1.5 (μM) [1, 7]	Emax [1, 8] [%]	TAMRA EC1.5 (μM) [2, 9]	Emax [2, 10] [%]	SMILES	also measured
C (EC1.5>25 μM)	< 350	B (EC1.5 1-25 μM)	< 350	–	–	–	–	O=C(Nc1ccncc1)c1cnc2ccc(-c3c(F)cccc3Cl)nn12 [Compound 161]	–
C (EC1.5>25 μM)	< 350	B (EC1.5 1-25 μM)	< 350	–	–	–	–	O=C(Nc1cccc(CN2CCOCC2)n1)c1cnc2ccc(-c3ccc(F)c(F)c3)nn12 [Compound 43]	–
–	–	–	–	C (EC1.5>25 μM)	< 350	C (EC1.5>25 μM)	< 350	Cc1ncccc1C(=O)Nc1cnc2ccc(-c3ccccc3C(F)(F)F)nn12 [Compound 392]	–
–	–	–	–	A (EC1.5<1 μM)	≥ 350	A (EC1.5<1 μM)	≥ 350	Cc1cncc(NC(=O)c2c(C)nn3ccc(-c4ccccc4C(F)(F)F)nc23)n1 [Compound 737]	–
–	–	–	–	B (EC1.5 1-25 μM)	≥ 350	A (EC1.5<1 μM)	≥ 350	O=C(Nc1cnc2ccc(-c3ccccc3OC(F)(F)F)nn12)c1ncccn1 [Compound 315]	–
–	–	–	–	B (EC1.5 1-25 μM)	< 350	A (EC1.5<1 μM)	≥ 350	O=C(Nc1cnc2ccc(-c3ccccc3C(F)(F)F)nn12)c1cnc(O)cn1 [Compound 704]	–
–	–	–	–	–	–	–	–	Cc1ccnc(NC(=O)c2cnc3ccc(-c4ccccc4OC(F)(F)F)nn23)n1 [Compound 401]	Trp EC1.5 [1, 11]: A (EC1.5<1 μM); Emax [1, 12]: ≥ 350%; TAMRA EC1.5 [2, 13]: A (EC1.5<1 μM); Emax [2, 14]: ≥ 350%
A (EC1.5<1 μM)	≥ 350	A (EC1.5<1 μM)	≥ 350	–	–	–	–	O=C(Nc1ccnc(OCC(O)CO)n1)c1cnc2ccc(-c3ccccc3C(F)(F)F)nn12 (centres unmarked) [Compound 74]	–
–	–	–	–	–	–	–	–	Cc1cc(NC(=O)c2cnc3ccc(-c4ccccc4C(F)(F)F)nn23)cc(OCC(O)CO)n1 (centres unmarked) [Compound 406]	Trp EC1.5 [1, 11]: A (EC1.5<1 μM); Emax [1, 12]: ≥ 350%; TAMRA EC1.5 [2, 13]: A (EC1.5<1 μM); Emax [2, 14]: ≥ 350%
A (EC1.5<1 μM)	< 350	A (EC1.5<1 μM)	≥ 350	–	–	–	–	O=C(Nc1cccc(N2CCOCC2)n1)c1cnc2ccc(-c3ccccc3F)nn12 [Compound 133]	–
–	–	–	–	–	–	–	–	O=C(Nc1cccnc1)c1cnn2ccc(-c3ccccc3OC(F)(F)F)nc12 [Compound 530]	Trp EC1.5 [1, 11]: A (EC1.5<1 μM); Emax [1, 12]: ≥ 350%; TAMRA EC1.5 [2, 13]: A (EC1.5<1 μM); Emax [2, 14]: ≥ 350%
–	–	–	–	B (EC1.5 1-25 μM)	≥ 350	B (EC1.5 1-25 μM)	< 350	Cc1nc2ccc(-c3ccccc3C(F)(F)F)nn2c1C(=O)Nc1ccnn1C(C)C [Compound 680]	–
–	–	–	–	B (EC1.5 1-25 μM)	≥ 350	A (EC1.5<1 μM)	≥ 350	O=C(Nc1ccncn1)c1cnc2ccc(-c3ccccc3OC(F)(F)F)nn12 [Compound 358]	–
B (EC1.5 1-25 μM)	< 350	A (EC1.5<1 μM)	< 350	–	–	–	–	O=C(Nc1cccc(N2CCOCC2)n1)c1cnc2ccc(-c3ccc(F)c(F)c3F)nn12 [Compound 126]	–
–	–	–	–	–	–	–	–	Cc1cc(C)nc(C(=O)Nc2cnc3ccc(N4CC[C@H](F)C4)nn23)c1 [Compound 566]	Trp EC1.5 [1, 11]: B (EC1.5 1-25 μM); Emax [1, 12]: < 350%; TAMRA EC1.5 [2, 13]: B (EC1.5 1-25 μM); Emax [2, 14]: ≥ 350%
–	–	–	–	B (EC1.5 1-25 μM)	< 350	A (EC1.5<1 μM)	≥ 350	O=C(Nc1cnc(OCC(O)CO)cn1)c1cnc2ccc(-c3ccccc3C(F)(F)F)nn12 (centres unmarked) [Compound 297]	–
B (EC1.5 1-25 μM)	< 350	B (EC1.5 1-25 μM)	≥ 350	–	–	–	–	O=C(Nc1ccncc1)c1cnc2ccc(-c3ccccc3C(F)(F)F)nn12 [Compound 77]	–
